Assay [1] deals with Platelet-derived growth factor receptor beta (Mus musculus, UniProt P05622). The assay is described as follows: Inhibition of glutamate/tyrosine (4:1) copolymer phosphorylation by mouse platelet-derived growth factor receptor-beta.
In assay [2] the target is Platelet-derived growth factor receptor (PDGFr) (Rattus norvegicus, UniProt P20786+Q05030). The assay is described as follows: Inhibition of PDGF-dependent rat glioma cell proliferation. Type of assay: functional.
Assay [3] deals with Proto-oncogene tyrosine-protein kinase Src (Gallus gallus, UniProt P00523). Nature of the assay: Inhibition of glutamate/tyrosine (4:1) copolymer phosphorylation by avian c-Src tyrosine kinase.
In assay [4] the target is Vascular endothelial growth factor receptor 2 (Homo sapiens, UniProt P35968). Nature of the assay: Inhibition of glutamate/tyrosine (4:1) copolymer phosphorylation by human VEGFR 2 in DELFIA assay.
Sequence of Vascular endothelial growth factor receptor 2 (P35968 whole entry): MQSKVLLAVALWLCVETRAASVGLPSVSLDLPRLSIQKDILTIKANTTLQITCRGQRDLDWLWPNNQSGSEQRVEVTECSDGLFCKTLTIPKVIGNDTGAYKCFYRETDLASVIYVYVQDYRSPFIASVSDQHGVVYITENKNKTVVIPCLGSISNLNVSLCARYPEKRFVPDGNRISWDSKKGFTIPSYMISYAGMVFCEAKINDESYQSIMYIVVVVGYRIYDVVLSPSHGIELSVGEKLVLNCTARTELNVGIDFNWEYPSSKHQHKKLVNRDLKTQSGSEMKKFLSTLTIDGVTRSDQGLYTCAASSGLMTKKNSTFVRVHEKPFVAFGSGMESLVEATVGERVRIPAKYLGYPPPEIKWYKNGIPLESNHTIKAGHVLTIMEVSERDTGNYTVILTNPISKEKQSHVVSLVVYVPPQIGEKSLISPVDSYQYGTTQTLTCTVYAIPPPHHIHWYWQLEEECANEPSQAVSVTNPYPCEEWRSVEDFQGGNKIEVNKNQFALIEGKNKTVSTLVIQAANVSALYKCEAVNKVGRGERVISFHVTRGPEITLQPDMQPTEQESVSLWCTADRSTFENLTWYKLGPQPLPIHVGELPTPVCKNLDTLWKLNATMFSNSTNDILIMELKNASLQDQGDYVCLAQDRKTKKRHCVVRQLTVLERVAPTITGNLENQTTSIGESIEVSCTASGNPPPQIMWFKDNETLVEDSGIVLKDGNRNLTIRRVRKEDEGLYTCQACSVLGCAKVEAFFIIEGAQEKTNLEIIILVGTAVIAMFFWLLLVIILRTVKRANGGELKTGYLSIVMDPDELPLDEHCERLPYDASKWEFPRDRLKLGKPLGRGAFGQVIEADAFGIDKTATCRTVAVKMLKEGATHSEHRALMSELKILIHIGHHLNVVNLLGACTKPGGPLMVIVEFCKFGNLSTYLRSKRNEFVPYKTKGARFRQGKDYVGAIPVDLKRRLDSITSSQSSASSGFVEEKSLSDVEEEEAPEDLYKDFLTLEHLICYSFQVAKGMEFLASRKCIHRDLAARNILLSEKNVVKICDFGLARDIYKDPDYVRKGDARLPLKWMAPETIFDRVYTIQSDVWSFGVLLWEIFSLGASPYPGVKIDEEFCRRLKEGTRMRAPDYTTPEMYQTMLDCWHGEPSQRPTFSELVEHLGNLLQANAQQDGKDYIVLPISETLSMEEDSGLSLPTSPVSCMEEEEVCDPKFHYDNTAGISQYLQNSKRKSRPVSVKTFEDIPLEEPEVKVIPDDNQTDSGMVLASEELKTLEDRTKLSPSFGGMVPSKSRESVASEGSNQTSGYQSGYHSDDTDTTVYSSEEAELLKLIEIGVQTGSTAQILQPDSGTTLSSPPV
Assay [5] addresses Vascular endothelial growth factor receptor (Homo sapiens, UniProt P17948+P35916+P35968). The assay is described as follows: Inhibition of VEGF-stimulated human umbilical vein endothelial cell proliferation. Type of assay: functional, cell-based.

Structures are written as SMILES. pIC50: −log10 of the molar value.

Sequence of Platelet-derived growth factor receptor beta (P05622 whole entry): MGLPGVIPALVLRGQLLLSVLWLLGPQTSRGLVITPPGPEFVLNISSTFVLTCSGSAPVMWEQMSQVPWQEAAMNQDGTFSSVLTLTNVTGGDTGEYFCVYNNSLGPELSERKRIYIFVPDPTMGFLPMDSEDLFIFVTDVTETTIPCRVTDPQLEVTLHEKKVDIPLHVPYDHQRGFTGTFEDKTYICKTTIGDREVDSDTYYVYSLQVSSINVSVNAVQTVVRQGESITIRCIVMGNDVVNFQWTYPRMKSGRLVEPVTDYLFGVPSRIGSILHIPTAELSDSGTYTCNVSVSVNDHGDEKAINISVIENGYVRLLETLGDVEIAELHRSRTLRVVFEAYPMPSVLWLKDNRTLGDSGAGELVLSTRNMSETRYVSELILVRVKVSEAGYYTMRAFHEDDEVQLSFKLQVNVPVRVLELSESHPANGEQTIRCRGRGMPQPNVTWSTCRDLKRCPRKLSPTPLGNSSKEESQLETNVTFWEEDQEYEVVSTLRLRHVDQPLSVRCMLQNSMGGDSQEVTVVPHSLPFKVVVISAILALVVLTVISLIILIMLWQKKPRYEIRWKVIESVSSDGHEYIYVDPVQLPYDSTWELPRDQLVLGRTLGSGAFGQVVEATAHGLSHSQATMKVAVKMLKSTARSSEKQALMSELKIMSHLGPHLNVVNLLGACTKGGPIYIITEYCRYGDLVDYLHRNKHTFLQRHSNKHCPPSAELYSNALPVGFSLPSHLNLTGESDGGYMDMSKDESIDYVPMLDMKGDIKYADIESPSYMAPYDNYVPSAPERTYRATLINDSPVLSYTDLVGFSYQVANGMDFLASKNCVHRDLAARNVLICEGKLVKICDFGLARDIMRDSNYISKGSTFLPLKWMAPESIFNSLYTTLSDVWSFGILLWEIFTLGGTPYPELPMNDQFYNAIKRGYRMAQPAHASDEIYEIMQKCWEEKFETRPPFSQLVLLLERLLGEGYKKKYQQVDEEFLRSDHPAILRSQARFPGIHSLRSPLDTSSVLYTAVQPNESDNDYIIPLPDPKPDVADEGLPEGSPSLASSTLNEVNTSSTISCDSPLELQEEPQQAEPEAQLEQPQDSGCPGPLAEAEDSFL

Turning to `COc1cc(OC)cc(-c2cc3cnc(NCCCCN4CCOCC4)cc3nc2NC(=O)NC(C)(C)C)c1`, the pIC50 in assay [1] was 4.82; in assay [3] it was 4.68. In assay [2], this molecule had an IC50 of 2.7 µM.

Take `CCNC(=O)Nc1nc2cc(NCCCN3CCN(C)CC3)ncc2cc1-c1cc(OC)cc(OC)c1`: the values for the pIC50 in assay [1] and in assay [3] were 4.52 and 4.85, respectively. The molecule also registered an IC50 in assay [2] of 7.5 µM.

For `COc1cc(OC)cc(C2Cc3cnc(N(CCCOCc4ccccc4)C(C)=O)cc3N=C2NC(=O)NC(C)(C)C)c1` (stereo unspecified), the pIC50 in assay [1] and in assay [3] was less than 4.30 throughout.

As for `CCN(CC)CCCCNc1cc2nc(N)c(-c3c(Cl)cccc3Cl)cc2cn1`, the figures for the pIC50 in assay [1] and in assay [3] were 5.40 and 7.38, respectively.

On to `CCN(CC)CCCCNc1cc2nc(N)c(-c3cc(OC)cc(OC)c3)cc2cn1`, for which the results for the pIC50 in assay [1] and in assay [3] were less than 4.30 and 4.59, respectively. The IC50 in assay [2] was 5.9 µM.

In the case of `COc1cc(OC)cc(-c2cc3cnc(NCCCN4CCN(C)CC4)nc3nc2NC(=O)NC(C)(C)C)c1`, the values for the pIC50 in assay [1] and in assay [3] were 4.51 and 4.59, respectively. This molecule returned an IC50 in assay [2] of 7.9 µM.

As to `COc1cc(OC)cc(-c2cc3cnc(NCCCCOc4ccccc4)cc3nc2NC(=O)NC(C)(C)C)c1`, the pIC50 in assay [1] and in assay [3] was less than 4.30 in each case.

Consider `COc1cc(OC)cc(-c2cc3cnc(N(CCCCOCc4ccccc4)C(C)=O)cc3nc2NC(=O)NC(C)(C)C)c1`, for which the pIC50 in assay [1] and in assay [3] was less than 4.30 in each case.

As to `CCN(CC)CCCCNc1cc2nc(NC(=O)NC(C)(C)C)c(-c3ccccc3)cc2cn1`, the pIC50 in assay [1] was 6.35; in assay [3] it was 6.96.

In the case of `COc1cc(OC)cc(-c2cc3cnc(N(CCCCO)C(C)=O)cc3nc2NC(=O)NC(C)(C)C)c1`, the pIC50 in assay [1] and in assay [3] was less than 4.30 each time.

With `COc1cc(OC)cc(-c2cc3cnc(NCCCCCN4CCN(C)CC4)cc3nc2NC(=O)NC(C)(C)C)c1`, the pIC50 in assay [1] is 4.57; in assay [3] it was 5.21. Also, the IC50 in assay [2] turned out to be 0.98 µM.

On to `CCNC(=O)Nc1nc2nc(NCCCN3CCN(C)CC3)ncc2cc1-c1cc(OC)cc(OC)c1`, for which the pIC50 in assay [1] was 4.35; in assay [3], 4.46. In assay [2], this molecule displayed an IC50 of 12 µM.

Take `COc1cc(OC)cc(-c2cc3cnc(NCCCN4CCN(C)CC4)cc3nc2NC(=O)NC(C)(C)C)c1`: the pIC50 in assay [1] was 4.80; in assay [3], 5.04. The IC50 in assay [2] worked out at 1.8 µM.

`CN1CCN(CCCNc2cc3nc(N)c(-c4ccccc4)cc3cn2)CC1`: the pIC50 in assay [1] was 5.06; in assay [3], 5.80.

On to `COc1cc(OC)cc(-c2cc3cnc(NCCCCN4CCN(C)CC4)cc3nc2NC(=O)NC(C)(C)C)c1`, for which the pIC50 in assay [1] is 5.44; in assay [3], 5.39. Moreover, the IC50 in assay [2] came to 1.3 µM.

Consider `CCNC(=O)Nc1nc2cc(NCCCCN(CC)CC)ncc2cc1-c1c(Cl)cccc1Cl`, for which the figures for the pIC50 in assay [1] and in assay [3] were 6.80 and 7.85, respectively.

Turning to `CCNC(=O)Nc1nc2cc(NCCCN3CCN(C)CC3)ncc2cc1-c1c(Cl)cccc1Cl`, the pIC50 in assay [1] is 6.27; in assay [3], 7.72.

Take `COc1cc(OC)cc(C2Cc3cnc(N(CCCCOCc4ccccc4)C(C)=O)cc3N=C2NC(=O)NC(C)(C)C)c1` (stereo unspecified): the pIC50 in assay [1] and in assay [3] was less than 4.30 in each case.

For `CCN(CC)CCCCNc1cc2nc(N)c(-c3ccccc3)cc2cn1`, the pIC50 in assay [1] is 4.92; in assay [3], 5.85.

Consider `CCNC(=O)Nc1nc2cc(NCCCCN(CC)CC)ncc2cc1-c1cc(OC)cc(OC)c1`, for which the pIC50 is 5.19 in assay [1] and 5.15 in assay [3]. The molecule also registered an IC50 in assay [2] of 3.5 µM.

For `COc1cc(OC)cc(-c2cc3cnc(NCCCCCOc4ccccc4)cc3nc2NC(=O)NC(C)(C)C)c1`, the pIC50 in assay [1] and in assay [3] was less than 4.30 in each case.

Regarding `COc1cc(OC)cc(C2Cc3cnc(N(CCCCCOCc4ccccc4)C(C)=O)cc3N=C2NC(=O)NC(C)(C)C)c1` (stereo unspecified), the pIC50 in assay [1] and in assay [3] was less than 4.30 throughout.

As for `CCNC(=O)Nc1nc2nc(NCCCCN(CC)CC)ncc2cc1-c1cc(OC)cc(OC)c1`, the values for the pIC50 in assay [1] and in assay [3] were 4.57 and 4.66, respectively. In assay [2], this molecule displayed an IC50 of more than 25 µM.

As to `COc1cc(OC)cc(-c2cc3cnc(N(CCCOCc4ccccc4)C(C)=O)cc3nc2NC(=O)NC(C)(C)C)c1`, the pIC50 in assay [1] and in assay [3] was less than 4.30 in each case.

With `COc1cc(OC)cc(-c2cc3cnc(NCCCOc4ccccc4)cc3nc2NC(=O)NC(C)(C)C)c1`, the pIC50 in assay [1] and in assay [3] was less than 4.30 in each case.

With `CCN(CC)CCCCNc1cc2nc(NC(=O)NC(C)(C)C)c(-c3cc(OC)cc(OC)c3)cc2cn1`, the pIC50 in assay [1] is 5.59; in assay [3] it was 5.34. The molecule further returned an IC50 in assay [2] of 2.1 µM.

With `COc1cc(OC)cc(-c2cc3cnc(NCCCCCN4CCOCC4)cc3nc2NC(=O)NC(C)(C)C)c1`, the pIC50 in assay [1] is less than 4.30; in assay [3], 4.80. Moreover, the IC50 in assay [2] came out at 2.9 µM.

Consider `CN1CCN(CCCNc2cc3nc(N)c(-c4c(Cl)cccc4Cl)cc3cn2)CC1`, for which the pIC50 in assay [1] is 5.33; in assay [3], 7.16.

For the molecule `COc1cc(OC)cc(-c2cc3cnc(NCCCN4CCN(C)CC4)cc3nc2N)c1`, the pIC50 is 4.30 in assay [1] and less than 4.30 in assay [3]. The IC50 in assay [2] worked out at 9.1 µM.

Consider `COc1cc(OC)cc(C2Cc3cnc(N(CCCCO)C(C)=O)cc3N=C2NC(=O)NC(C)(C)C)c1` (stereo unspecified), for which the pIC50 in assay [1] and in assay [3] was less than 4.30 each time.

Turning to `CN1CCN(CCCNc2cc3nc(NC(=O)NC(C)(C)C)c(-c4c(Cl)cccc4Cl)cc3cn2)CC1`, the pIC50 was 6.21 in assay [1] and 7.72 in assay [3].

In the case of `COc1cc(OC)cc(C2Cc3cnc(N(CCCCCO)C(C)=O)cc3N=C2NC(=O)NC(C)(C)C)c1` (stereo unspecified), the pIC50 in assay [1] and in assay [3] was less than 4.30 in each case.

Consider `CCN(CC)CCCCCNc1cc2nc(NC(=O)NC(C)(C)C)c(-c3cc(OC)cc(OC)c3)cc2cn1`, for which the pIC50 in assay [1] was 5.30; in assay [3] it was 5.44. The same molecule had an IC50 in assay [2] of 1.5 µM.

Take `COc1cc(OC)cc(-c2cc3cnc(NCCCO)cc3nc2NC(=O)NC(C)(C)C)c1`: the pIC50 in assay [1] is 4.49; in assay [3], less than 4.30. This molecule had an IC50 in assay [2] of 1.8 µM.

As for `COc1cc(OC)cc(-c2cc3cnc(NCCCN4CCOCC4)cc3nc2NC(=O)NC(C)(C)C)c1`, the IC50 in assay [2] turned out to be 3.4 µM. In assay [3], this molecule had a pIC50 of less than 4.30.

On to `CN1CCN(CCCNc2cc3nc(NCCCN4CCN(C)CC4)c(-c4ccccc4)cc3cn2)CC1`, for which the pIC50 was less than 4.30 in assay [1] and 5.17 in assay [3].

For the molecule `COc1cc(OC)cc(-c2cc3cnc(N(CCCO)C(C)=O)cc3nc2NC(=O)NC(C)(C)C)c1`, the pIC50 in assay [1] and in assay [3] was less than 4.30 throughout.

In the case of `COc1cc(OC)cc(C2Cc3cnc(N(CCCO)C(C)=O)cc3N=C2NC(=O)NC(C)(C)C)c1` (stereo unspecified), the pIC50 in assay [1] and in assay [3] was less than 4.30 throughout.

As for `CCN(CC)CCCNc1cc2nc(NC(=O)NC(C)(C)C)c(-c3cc(OC)cc(OC)c3)cc2cn1`, the pIC50 in assay [1] is 4.74; in assay [3] it was 4.80. Further, in assay [2], the IC50 was found to be 4 µM.

On to `COc1cc(OC)cc(-c2cc3cnc(N(CCCCCO)C(C)=O)cc3nc2NC(=O)NC(C)(C)C)c1`, for which the pIC50 in assay [1] and in assay [3] was less than 4.30 throughout.

Consider `COc1cc(OC)cc(-c2cc3cnc(NCCCO)nc3nc2NC(=O)NC(C)(C)C)c1`, for which the pIC50 in assay [1] and in assay [3] was less than 4.30 each time. This molecule showed a half-maximal inhibitory concentration (IC50) in assay [2] of 11 µM.

With `CCN(CC)CCCCNc1cc2nc(NC(=O)NC(C)(C)C)c(-c3c(Cl)cccc3Cl)cc2cn1`, the pIC50 in assay [1] is 6.32; in assay [3], 7.85.

Regarding `COc1cc(OC)cc(-c2cc3cnc(NCCCCCO)cc3nc2NC(=O)NC(C)(C)C)c1`, the results for the pIC50 in assay [1] and in assay [3] were 4.96 and less than 4.30, respectively. This molecule registered an IC50 in assay [2] of 3.4 µM.

Consider `COc1cc(OC)cc(-c2cc3cnc(N(CCCCCOCc4ccccc4)C(C)=O)cc3nc2NC(=O)NC(C)(C)C)c1`, for which the pIC50 in assay [1] and in assay [3] was less than 4.30 in each case.

In the case of `COc1cc(OC)cc(-c2cc3cnc(NCCCCO)cc3nc2NC(=O)NC(C)(C)C)c1`, the pIC50 was 4.64 in assay [1] and less than 4.30 in assay [3]. In addition, the IC50 in assay [2] is 1.2 µM.

`CN1CCN(CCCNc2cc3nc(NC(=O)NC(C)(C)C)c(-c4ccccc4)cc3cn2)CC1`: the pIC50 was 5.92 in assay [1] and 6.64 in assay [3].

As for `CCN(CC)CCCCNc1ncc2cc(-c3cc(OC)cc(OC)c3)c(NC(=O)NC(C)(C)C)nc2n1` [PD-173074], the pIC50 in assay [1] was 4.85; in assay [4], 6.92; in assay [3], 4.70. Further, the IC50 in assay [2] is 17 µM; in assay [5] it was 0.19 µM.

The values above are taken from ChEMBL document CHEMBL1145157, “Synthesis and structure-activity relationships of soluble 7-substituted 3-(3,5-dimethoxyphenyl)-1,6-naphthyridin-2-amines and related ureas as dual inhibitors of the fibroblast growth factor receptor-1 and vascular endothelial growth factor receptor-2 tyrosine kinases” (J Med Chem, 2005).
